# Data from patent publication US9695155B2, “Herbicidal substituted pyrimidinyloxy benzene compounds” (E. I. DU PONT DE NEMOURS AND COMPANY, priority 2013, dated 2017).
# Key:
# [1] = system: wheat; assay: Test A postemergence; assay type: in vivo, Triticum aestivum; details: Triticum aestivum, post-emergence, 240 h, 0 to 100 scale where 0 is no effect and 100 is complete control, read-out: Plant response rating, Wheat
# Procedure, shortened: (§1)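 Scoring: eye-based comparison with untreated controls, 0 for no effect through 100 for complete control, at about day 10. Treatments: directed soil spray preemergence; foliar spray postemergence on 2–10 cm plants at the one- to two-leaf stage. Medium: loam soil with sand.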
# [2] = system: blackgrass; assay: Test C postemergence; assay type: in vivo, Alopecurus myosuroides; details: Alopecurus myosuroides, post-emergence
# Procedure, shortened: (§2)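 Visual ratings on a 0–100 scale (100 = complete control) were made versus untreated controls after 13–15 greenhouse days. Chemicals in a surfactant-containing non-phytotoxic solvent were applied either preemergence to seeds in loam–sand soil or postemergence to 1- to 4-leaf plants 2–18 cm tall.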
# [3] = system: yellow nutsedge; assay: Test C postemergence; assay type: in vivo, Cyperus esculentus; details: Cyperus, post-emergence
# Procedure, shortened: as §2
# [4] = system: barnyardgrass; assay: Test C postemergence; assay type: in vivo, Echinochloa crus-galli; details: Echinochloa crus-galli, post-emergence
# Procedure, shortened: as §2
# [5] = system: wheat; assay: Test A preemergence; assay type: in vivo, Triticum aestivum
# Procedure, shortened: as §1
# [6] = system: morningglory; assay: Test A preemergence; assay type: in vivo, Ipomoea spp.
# Procedure, shortened: as §1
# [7] = system: johnsongrass; assay: Test C postemergence; assay type: in vivo, Sorghum halepense; details: Sorghum halepense, post-emergence
# Procedure, shortened: as §2
# [8] = system: kochia; assay: Test C postemergence; assay type: in vivo, Kochia scoparia; details: Bassia scoparia, post-emergence
# Procedure, shortened: as §2
# [9] = system: large (Lg) crabgrass; assay: Test C postemergence; assay type: in vivo, Digitaria sanguinalis; details: Digitaria sanguinalis, post-emergence
# Procedure, shortened: as §2
# [10] = system: barnyardgrass; assay: Test A preemergence; assay type: in vivo, Echinochloa crus-galli; details: Echinochloa crus-galli, pre-emergence, 240 h
# Procedure, shortened: as §1
# [11] = system: corn; assay: Test A preemergence; assay type: in vivo, Zea mays; details: Zea mays, pre-emergence, 240 h
# Procedure, shortened: as §1
# [12] = system: oilseed rape; assay: Test C postemergence; assay type: in vivo, Brassica napus; details: Brassica napus, post-emergence
# Procedure, shortened: as §2
# [13] = system: morningglory; assay: Test C postemergence; assay type: in vivo, Ipomoea coccinea; details: Ipomoea, post-emergence
# Procedure, shortened: as §2
# [14] = system: sedge, umbrella; assay: Test B flooded paddy test; assay type: in vivo, Cyperus difformis; details: Cyperus difformis, Flood, 250 g ai/ha; 0 to 100 scale where 0 is no effect and 100 is complete control; read-out: Plant response rating, Sedge, Umbrella
# Procedure, shortened: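 Compound added straight to paddy water, with pots kept flooded 3 cm above soil, on plants grown to the 2-leaf stage. Visual scoring 0-100 (100 = complete control) against untreated controls after 13 to 15 greenhouse days.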
# [15] = system: morningglory; assay: Test A postemergence; assay type: in vivo, Ipomoea spp.; details: Ipomoea, post-emergence, 240 h, 0 to 100 scale where 0 is no effect and 100 is complete control, read-out: Plant response rating, Morningglory
# Procedure, shortened: as §1
# [16] = 125 g ai/ha, 0 to 100 scale where 0 is no effect and 100 is complete control
smiles,measurement,setting,value
"N#Cc1cccc(Oc2ncc(F)cn2)c1-n1cc(C(F)(F)F)cn1 [Compound 79, 3-[(5-fluoro-2-pyrimidinyl)oxy]-2-[4-(trifluoromethyl)-1H-pyrazol-1-yl]benzonitrile]",plant injury at 125 g/ha,[1]; 125 g ai/ha,80%
same,plant injury at 500 g/ha,[1]; 500 g ai/ha,90%
same,pest or weed control at 125 g/ha,"[2]; 125 g ai/ha, postemergence, read-out: Plant response rating (0 to 100), Blackgrass",35%
same,pest or weed control at 250 g/ha,"[2]; 250 g ai/ha, postemergence, read-out: Plant response rating (0 to 100), Blackgrass",80%
same,pest or weed control at 31 g/ha,"[2]; Postemergence, 31 g ai/ha, scale 0 to 100 (0 no effect, 100 complete control), 13 to 15 days, read-out: Plant response rating, Blackgrass",10%
same,pest or weed control at 62 g/ha,"[2]; Postemergence, 62 g ai/ha, scale 0 to 100 (0 no effect, 100 complete control), read-out: Plant response rating, Blackgrass",30%
same,pest or weed control at 125 g/ha,"[3]; 125 g ai/ha, postemergence, read-out: Plant response rating (0 to 100), Nutsedge, Yellow",5%
same,pest or weed control at 250 g/ha,"[3]; 250 g ai/ha, postemergence, read-out: Plant response rating (0 to 100), Nutsedge, Yellow",25%
same,pest or weed control at 31 g/ha,"[3]; Postemergence, 31 g ai/ha, scale 0 to 100 (0 no effect, 100 complete control), 13 to 15 days, read-out: Plant response rating, Nutsedge, Yellow",5%
same,pest or weed control at 62 g/ha,"[3]; Postemergence, 62 g ai/ha, scale 0 to 100 (0 no effect, 100 complete control), read-out: Plant response rating, Nutsedge, Yellow",5%
same,pest or weed control at 125 g/ha,"[4]; 125 g ai/ha, postemergence, read-out: Plant response rating (0 to 100), Barnyardgrass",20%
same,pest or weed control at 250 g/ha,"[4]; 250 g ai/ha, postemergence, read-out: Plant response rating (0 to 100), Barnyardgrass",75%
same,pest or weed control at 31 g/ha,"[4]; Postemergence, 31 g ai/ha, scale 0 to 100 (0 no effect, 100 complete control), 13 to 15 days, read-out: Plant response rating, Barnyardgrass",5%
same,pest or weed control at 62 g/ha,"[4]; Postemergence, 62 g ai/ha, scale 0 to 100 (0 no effect, 100 complete control), read-out: Plant response rating, Barnyardgrass",5%
same,"Plant response rating, Wheat",[5]; [16],70
same,plant injury at 500 g/ha,"[5]; Triticum aestivum, pre-emergence, 240 h, 500 g ai/ha, 0 to 100 scale, 0 no effect, 100 complete control, approx. 10 days, read-out: Wheat plant response rating",100%
same,"Plant response rating, Morningglory",[6]; [16],100
same,pest or weed control at 500 g/ha,"[6]; Ipomoea, pre-emergence, 240 h, 500 g ai/ha, 0 to 100 scale, 0 no effect, 100 complete control, approx. 10 days, read-out: Morningglory plant response rating",100%
same,pest or weed control at 125 g/ha,"[7]; 125 g ai/ha, postemergence, read-out: Plant response rating (0 to 100), Johnsongrass",40%
same,pest or weed control at 250 g/ha,"[7]; 250 g ai/ha, postemergence, read-out: Plant response rating (0 to 100), Johnsongrass",85%
same,pest or weed control at 31 g/ha,"[7]; Postemergence, 31 g ai/ha, scale 0 to 100 (0 no effect, 100 complete control), 13 to 15 days, read-out: Plant response rating, Johnsongrass",5%
same,pest or weed control at 62 g/ha,"[7]; Postemergence, 62 g ai/ha, scale 0 to 100 (0 no effect, 100 complete control), read-out: Plant response rating, Johnsongrass",10%
same,pest or weed control at 125 g/ha,"[8]; 125 g ai/ha, postemergence, read-out: Plant response rating (0 to 100), Kochia",95%
same,pest or weed control at 250 g/ha,"[8]; 250 g ai/ha, postemergence, read-out: Plant response rating (0 to 100), Kochia",95%
same,pest or weed control at 31 g/ha,"[8]; Postemergence, 31 g ai/ha, scale 0 to 100 (0 no effect, 100 complete control), 13 to 15 days, read-out: Plant response rating, Kochia",90%
same,pest or weed control at 62 g/ha,"[8]; Postemergence, 62 g ai/ha, scale 0 to 100 (0 no effect, 100 complete control), read-out: Plant response rating, Kochia",90%
same,pest or weed control at 125 g/ha,"[9]; 125 g ai/ha, postemergence, read-out: Plant response rating (0 to 100), Crabgrass, Large",30%
same,pest or weed control at 250 g/ha,"[9]; 250 g ai/ha, postemergence, read-out: Plant response rating (0 to 100), Crabgrass, Large",65%
same,pest or weed control at 31 g/ha,"[9]; Postemergence, 31 g ai/ha, scale 0 to 100 (0 no effect, 100 complete control), 13 to 15 days, read-out: Plant response rating, Crabgrass, Large",20%
same,pest or weed control at 62 g/ha,"[9]; Postemergence, 62 g ai/ha, scale 0 to 100 (0 no effect, 100 complete control), read-out: Plant response rating, Crabgrass, Large",20%
same,pest or weed control at 125 g/ha,"[10]; 125 g ai/ha, 0 to 100 scale where 0 is no effect and 100 is complete control, read-out: Plant response rating, Barnyardgrass",100%
same,pest or weed control at 500 g/ha,"[10]; 500 g ai/ha, 0 to 100 scale, 0 no effect, 100 complete control, approx. 10 days, read-out: Barnyardgrass plant response rating",100%
same,"Corn plant response rating (crop injury, 0 = no effect, 100 = complete kill) at 125 g/ha",[11]; [16],80%
same,plant injury at 500 g/ha,"[11]; 500 g ai/ha, 0 to 100 scale, 0 no effect, 100 complete control, approx. 10 days, read-out: Corn plant response rating",100%
same,plant injury at 125 g/ha,"[12]; 125 g ai/ha, postemergence, read-out: Plant response rating (0 to 100), Oilseed Rape",50%
same,plant injury at 250 g/ha,"[12]; 250 g ai/ha, postemergence, read-out: Plant response rating (0 to 100), Oilseed Rape",90%
same,plant injury at 31 g/ha,"[12]; Postemergence, 31 g ai/ha, scale 0 to 100 (0 no effect, 100 complete control), 13 to 15 days, read-out: Plant response rating, Oilseed Rape",30%
same,plant injury at 62 g/ha,"[12]; Postemergence, 62 g ai/ha, scale 0 to 100 (0 no effect, 100 complete control), read-out: Plant response rating, Oilseed Rape",50%
same,pest or weed control at 125 g/ha,"[13]; 125 g ai/ha, postemergence, read-out: Plant response rating (0 to 100), Morningglory",95%
same,pest or weed control at 250 g/ha,"[13]; 250 g ai/ha, postemergence, read-out: Plant response rating (0 to 100), Morningglory",98%
same,pest or weed control at 31 g/ha,"[13]; Postemergence, 31 g ai/ha, scale 0 to 100 (0 no effect, 100 complete control), 13 to 15 days, read-out: Plant response rating, Morningglory",70%
same,pest or weed control at 62 g/ha,"[13]; Postemergence, 62 g ai/ha, scale 0 to 100 (0 no effect, 100 complete control), read-out: Plant response rating, Morningglory",95%
same,pest or weed control at 250 g/ha,[14],95%
same,pest or weed control at 125 g/ha,[15]; 125 g ai/ha,100%
same,pest or weed control at 500 g/ha,[15]; 500 g ai/ha,100%
